The test system of data set [1] is Fusarium proliferatum. In words: Example I: production of fumonisin FB1 by Fusarium proliferatum (microtitre plates). It counts as cell-based. Particulars: 120 h.
The test system of data set [2] is Fusarium graminearum. In words: microbe, parasite or virus in culture. It counts as cell-based.
In data set [3] the test system is Sphaerotheca fuliginea. Nature of the data set: Example L: in vivo test on Sphaerotheca fuliginea (powdery mildew on cucumber/protective). Particulars: Podosphaera fuliginea, 168 h, cucumber, protective, assessment 7 days after inoculation, read-out: % Wirkungsgrad. In short, it runs like this:
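Young cucumber plants sprayed at stated dosage with compound in DMF/alkylaryl polyglycol ether emulsifier diluted in water; inoculated with S. fuliginea spores one day later. Kept in greenhouse at 70% relative humidity, 23° C; protective activity assessed 7 days after inoculation.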

Data set [4] relates to Alternaria solani. In words: Example M: in vivo test on Alternaria solani (leaf blotch disease/tomato/protective). Particulars: 168 h, tomato, protective, 500 ppm active substance, assessed 7 days after inoculation, read-out: % Wirkungsgrad (activity level). In short, it runs like this: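 Protective test: young tomato plants sprayed with active substance (in DMF with alkylaryl polyglycol ether emulsifier, diluted in water) at the stated dosage, then inoculated with Alternaria solani. Disease assessed 7 days after inoculation.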

The nature of data set [5]: physchem.
The test system of data set [6] is Venturia inaequalis. Nature of the data set: Example O: in vivo test on Venturia inaequalis (apple scab/protective). To be noted: 240 h, protective, assessment 10 days after inoculation, read-out: % Wirkungsgrad. As for the experimental part:
(§1) Emulsifier: 1 part by weight alkylaryl polyglycol ethers For the preparation of a suitable active substance preparation, 1 part by weight of active substance is mixed with the stated quantities of solvent and emulsifier and the concentrate is diluted to the desired concentration with water. For the testing for protective activity, young plants are sprayed with the active substance preparation at the stated application dosage. […] 10 days after the inoculation, the assessment takes place.

The test system of data set [7] is Botrytis cinerea. Nature of the data set: Example P: in vivo test on Botrytis cinerea (gray mould on bean/protective). Particulars: 48 h, bean, protective, 250 ppm active substance, assessed 2 days after inoculation, read-out: % Wirkungsgrad (activity level). As for the experimental part:
as §1, with “dosage. After drying of the spray coating, 2 small pieces of agar with Botrytis cinerea growing on them are laid on every leaf.” for “dosage.”, “2” for “10”, “size of the infection blotches on the leaves is assessed.” for “assessment takes place.”

Setting [8] is: Fusarium proliferatum growth, OD 620, 5 days, read-out: % Inhibition des Pilzwachstums bei 50 μM.
Where [9] appears, read: Fusarium proliferatum, 5 days at 20° C., HPLC-MS/MS, read-out: % Inhibition der FB1 produktion bei 50 μM.
Setting [10] is: 72 h, read-out: % Inhibition des Pilzwachstums bei 50 μM.
Setting [11] is: 168 h, read-out: % Inhibition der DON/AcDON produktion bei 50 μM.
Where [12] appears, read: LogPA (logP of the stated pure compound or, in a mixture, of the main isomer, 1-substituted 3-aryl-1H-pyrazole).

Where two headings read alike, the source gives them in different places.

In the case of `CC(C)Cn1cc(-c2ccncn2)c(-c2cccc(Cl)c2)n1` [Compound 5], the inhibition at 50 µM in data set [1] (setting [8]) is 79%; in data set [1] (setting [9]), 100%; in data set [2] (setting [10]), 97%; in data set [2] (setting [11]) it was 100%. Further, the pest or weed control at 500 ppm in data set [3] was 70%; in data set [4], 90%. Besides, the chromatographic logP (as a rule, lipophilicity estimated from chromatographic retention) in data set [5] (setting [12]) turned out to be 3.27.
Consider `Fc1ccc(-c2nn(C3CCCCO3)cc2-c2ccnc3[nH]ccc23)cc1` (stereo not drawn) [Compound 20], for which the inhibition at 50 µM in data set [1] (setting [8]) is 65%; in data set [1] (setting [9]) it was 100%; in data set [2] (setting [10]) it was 21%; in data set [2] (setting [11]) it was 87%. Further, the chromatographic logP in data set [5] (setting [12]) was 2.08.
For the compound `Cc1nccc(-c2cn(C3CCCCO3)nc2-c2ccc(F)cc2)n1` (stereo not drawn) [Compound 29], the inhibition at 50 µM in data set [1] (setting [8]) is 34%; in data set [1] (setting [9]) it was 82%. Moreover, the pest or weed control at 500 ppm in data set [3] was 70%; in data set [4] it was 78%. For the same compound, the chromatographic logP in data set [5] (setting [12]) came to 2.53.
Consider `Fc1ccc(-c2nn(C3CCCCO3)cc2-c2ccnc3ccccc23)cc1` (stereo not drawn) [Compound 54], for which the inhibition at 50 µM stood at 47% in data set [1] (setting [8]), 100% in data set [1] (setting [9]), 31% in data set [2] (setting [10]) and 85% in data set [2] (setting [11]). The chromatographic logP in data set [5] (setting [12]) was found to be 2.46.
On to `CCC(=O)Nc1cc(-c2cn(CCOC)nc2-c2ccc(F)cc2)ccn1` [Compound 153, N-{4-[3-(4-fluorophenyl)-1-(2-methoxyethyl)-1H-pyrazol-4-yl]pyridin-2-yl}propanamide], for which the inhibition at 50 µM in data set [1] (setting [8]) was 48%; in data set [1] (setting [9]), 100%; in data set [2] (setting [10]), 56%; in data set [2] (setting [11]), 100%. Further, the pest or weed control at 500 ppm in data set [4] came out at 90%. The chromatographic logP in data set [5] (setting [12]) worked out at 1.61.
With `COCCn1cc(-c2ccnc(NC(=O)COC)c2)c(-c2ccc(F)cc2)n1` [Compound 163], the inhibition at 50 µM in data set [1] (setting [8]) is 72%; in data set [1] (setting [9]), 100%; in data set [2] (setting [10]), 100%; in data set [2] (setting [11]) it was 100%. In addition, the pest or weed control at 500 ppm in data set [3] and in data set [4] was 93% each time. Also, the chromatographic logP in data set [5] (setting [12]) was 2.05.
On to `CC(C)Cn1cc(-c2ccnc(NC(=O)C3CC3)c2)c(-c2ccc(F)cc2)n1` [Compound 165], for which the inhibition at 50 µM in data set [1] (setting [8]) came to 90%; in data set [1] (setting [9]), 100%; in data set [2] (setting [10]), 64%; in data set [2] (setting [11]), 100%. Besides, the results for the pest or weed control at 500 ppm in data set [3] and in data set [4] were 86% and 95%, respectively. Further, the chromatographic logP in data set [5] (setting [12]) worked out at 2.6.
For the compound `COCC(=O)Nc1cc(-c2cn(CC(C)C)nc2-c2ccc(F)cc2)ccn1` [Compound 166], the inhibition at 50 µM in data set [1] (setting [8]) came to 98%; in data set [1] (setting [9]), 100%; in data set [2] (setting [10]), 84%; in data set [2] (setting [11]) it was 100%. The pest or weed control at 500 ppm in data set [3] turned out to be 97%; in data set [4], 95%. This compound displayed a chromatographic logP in data set [5] (LogPA) of 2.96.
As to `CCOCCn1cc(-c2ccncc2)c(-c2ccc(F)cc2)n1` [Compound 179], the pest or weed control at 500 ppm is 74% in data set [3] and 100% in data set [4]. Moreover, the pest or weed control at 100 ppm in data set [6] amounted to 100%. In addition, the pest or weed control at 250 ppm in data set [7] came to 100%. The compound also yielded a chromatographic logP in data set [5] (LogPA) of 1.25.
Regarding `N#CCn1cc(-c2ccncc2)c(-c2ccc(F)cc2)n1` [Compound 180], in data set [6], the pest or weed control at 100 ppm turned out to be 96%. For the same compound, the pest or weed control at 250 ppm in data set [7] worked out at 93%. In data set [5] (LogPA), this compound came in with a chromatographic logP of 0.89.
With `CCC(=O)Nc1cc(-c2cn(C3CCN(C(=O)OC(C)(C)C)CC3)nc2-c2ccc(F)cc2)ccn1` [Compound 193], the inhibition at 50 µM in data set [1] (setting [8]) worked out at 0%; in data set [1] (setting [9]) it was 85%. Also, in data set [4], the pest or weed control at 500 ppm is 93%. In addition, in data set [5] (LogPA), the chromatographic logP turned out to be 3.03.
`CCC(=O)Nc1cc(-c2c(-c3ccc(Cl)cc3F)nn(C)c2SC)ccn1` [Compound 195]: the inhibition at 50 µM in data set [1] (setting [8]) is 17%; in data set [1] (setting [9]), 100%; in data set [2] (setting [10]) it was 0%; in data set [2] (setting [11]) it was 80%. The pest or weed control at 500 ppm in data set [4] came out at 80%. Also, the chromatographic logP in data set [5] (LogPA) came out at 2.7.
As for `CCC(=O)Nc1cc(-c2c(-c3ccc(F)cc3O)nn(C)c2OC(F)F)ccn1` [Compound 196], the figures for the inhibition at 50 µM in data set [1] (setting [8]) and in data set [1] (setting [9]) were 25% and 100%, respectively. Further, the pest or weed control at 500 ppm in data set [4] was found to be 100%. The same compound returned a chromatographic logP in data set [5] (LogPA) of 2.12.
For `COCC(=O)Nc1cc(-c2c(-c3ccc(Cl)cc3F)nn(C)c2SC)ccn1` [Compound 200], the inhibition at 50 µM in data set [1] (setting [8]) came out at 1%; in data set [1] (setting [9]), 99%. Besides, the pest or weed control at 500 ppm in data set [4] amounted to 93%. The compound also yielded a chromatographic logP in data set [5] (LogPA) of 3.
Turning to `CC(C)n1cc(-c2ccnc(NC(=O)c3ccccc3)c2)c(-c2ccc(F)cc2)n1` [Compound 205], the results for the pest or weed control at 500 ppm in data set [3] and in data set [4] were 100% and 95%, respectively. The pest or weed control at 100 ppm in data set [6] is 91%. Also, in data set [7], the pest or weed control at 250 ppm is 100%. In data set [5] (LogPA), this compound gave a chromatographic logP of 3.2.
In the case of `CC(C)n1cc(-c2ccnc(NC(=O)C(C)(C)O)c2)c(-c2ccc(F)cc2)n1` [Compound 209], the pest or weed control at 500 ppm is 100% in data set [3] and 95% in data set [4]. In addition, the pest or weed control at 100 ppm in data set [6] stood at 89%. The pest or weed control at 250 ppm in data set [7] was determined as 100%. For the same compound, the chromatographic logP in data set [5] (LogPA) was found to be 2.42.
With `CCC(=O)Nc1cc(-c2cn(Cc3ccccc3F)nc2-c2ccc(F)cc2)ccn1` [Compound 213], the inhibition at 50 µM in data set [1] (setting [8]) came to 56%; in data set [1] (setting [9]), 100%; in data set [2] (setting [10]), 0%; in data set [2] (setting [11]), 100%. The figures for the pest or weed control at 500 ppm in data set [3] and in data set [4] were 74% and 90%, respectively. In addition, the pest or weed control at 250 ppm in data set [7] was determined as 91%. In data set [5] (LogPA), this compound registered a chromatographic logP of 2.69.
Regarding `COCC(=O)Nc1cc(-c2cn(CC(F)F)nc2-c2ccc(F)cc2)ccn1` [Compound 216], the values for the inhibition at 50 µM in data set [1] (setting [8]) and in data set [1] (setting [9]) were 97% and 100%, respectively. The pest or weed control at 500 ppm was determined as 89% in data set [3] and 95% in data set [4]. This compound yielded a chromatographic logP in data set [5] (LogPA) of 2.27.
On to `COCC(=O)Nc1cc(-c2cn(CC3CC3)nc2-c2ccc(F)cc2)ccn1` [Compound 223], for which the inhibition at 50 µM in data set [1] (setting [8]) turned out to be 96%; in data set [1] (setting [9]) it was 100%; in data set [2] (setting [10]), 99%; in data set [2] (setting [11]), 97%. The results for the pest or weed control at 500 ppm in data set [3] and in data set [4] were 91% and 90%, respectively. The chromatographic logP in data set [5] (LogPA) worked out at 2.61.
`CC(=O)Nc1cc(-c2cn(CC(F)F)nc2-c2ccc(F)cc2)ccn1` [Compound 242]: the values for the pest or weed control at 500 ppm in data set [3] and in data set [4] were 97% and 88%, respectively. For the same compound, the pest or weed control at 100 ppm in data set [6] came to 89%. Besides, the pest or weed control at 250 ppm in data set [7] came out at 99%. Also, the chromatographic logP in data set [5] (LogPA) was 1.74.
In the case of `CC(C)(O)C(=O)Nc1cc(-c2cn(CC(F)F)nc2-c2ccc(F)cc2)ccn1` [Compound 243], the pest or weed control at 500 ppm amounted to 95% in data set [3] and 100% in data set [4]. The pest or weed control at 100 ppm in data set [6] was 98%. Also, the pest or weed control at 250 ppm in data set [7] came out at 75%. The chromatographic logP in data set [5] (LogPA) turned out to be 2.18.
Consider `CCC(=O)Nc1cc(-c2cn(CC3CC3(Cl)Cl)nc2-c2ccc(F)cc2)ccn1` (stereo not drawn) [Compound 249], for which the pest or weed control at 500 ppm in data set [3] came out at 92%; in data set [4], 94%. The pest or weed control at 100 ppm in data set [6] was 96%. Also, the pest or weed control at 250 ppm in data set [7] was found to be 100%. In data set [5] (LogPA), this compound registered a chromatographic logP of 2.8.
Take `CC(C)C(=O)Nc1cc(-c2cn(CC3CC3(Cl)Cl)nc2-c2ccc(F)cc2)ccn1` (stereo not drawn) [Compound 254]: the inhibition at 50 µM in data set [2] (setting [10]) amounted to 16%; in data set [2] (setting [11]), 99%. Moreover, the pest or weed control at 500 ppm in data set [3] came to 92%; in data set [4], 94%. Moreover, the pest or weed control at 100 ppm in data set [6] amounted to 73%. In data set [5] (LogPA), this compound came in with a chromatographic logP of 3.17.

Source of the values: patent US20110183978A1, “Phenylpyri(mi)dinylazoles” (Bayer CropScience AG, priority 2009, published 2011).
